This is an account of results in article PMC8847198, “The Influence of AA29504 on GABAA Receptor Ligand Binding Properties and Its Implications on Subtype Selectivity” (Neurochemical Research, 2021).

Read-outs that look alike come from different tables or passages of the source.

Data set [1] addresses T1, recombinant α6β3 GABAARs expressed in HEK293 cells (Rattus norvegicus, UniProt P30191+P63079).
T1 construct: expressed in transfected cells; host or cells: HEK293, transient calcium phosphate transfection, pRK5 plasmids
The data set is described as follows: GABA-independent displacement of [^3H]EBOB binding, recombinant α6β3. The method, then:
(§1) Triplicate samples were incubated with shaking for 2 h. […] The incubations were terminated as described above for [^3H]muscimol binding.
(§2) GraphPad Prism software (GraphPad, San Diego, CA, USA) was used for nonlinear least squares curve-fitting and statistical testing of association, dissociation, saturation binding and radioligand displacement data. The association and dissociation curves were used for the estimation of association (Kon) and dissociation (Koff) rate constants. Saturation binding curves were used for the estimation of total number of high-affinity binding sites (Bmax), and equilibrium dissociation constants (KD). […] Statistical comparisons were made with One-way ANOVA, Two-way ANOVA or Brown-Forsythe and Welch ANOVA followed by the relevant (Tukey’s or Dunnett’s) post hoc tests for multiple comparisons. […] The study samples were not randomized and analysis was performed in a parallel unblinded mode.

Data set [2] addresses T2, recombinant α6β3δ GABAARs expressed in HEK293 cells (Rattus norvegicus, UniProt P18506+P30191+P63079).
T2 construct: expressed in transfected cells; host or cells: HEK293, transient calcium phosphate transfection, pRK5 plasmids, 1:1:1
The data set is described as follows: GABA-independent displacement of [^3H]EBOB binding, recombinant α6β3δ. The method, then:
as §1, §2

Data set [3] concerns the target T3, recombinant α6β3γ2 GABAARs expressed in HEK293 cells (Rattus norvegicus, UniProt P18508+P30191+P63079).
T3 construct: expressed in transfected cells; host or cells: HEK293, transient calcium phosphate transfection, pRK5 plasmids, 1:1:1
Briefly: GABA-independent displacement of [^3H]EBOB binding, recombinant α6β3γ2. The method, then: as §1, §2

Data set [4] concerns native GABAARs expressed in WT mice forebrain membranes. The data set is described as follows: AA29504 effect on [^3H]muscimol binding, WT forebrain membranes. Details: species or system mouse. The settings on record: increasing concentrations of AA29504, 15 min, 22 °C. The method, then: (§3) WT and δKO forebrain membranes were prepared using the method of Squires and Saederup as modified by Uusi-Oukari et al.. Homogenized and washed membranes were suspended in 10 mM Tris–HCl, pH 7.4 and stored at -70 °C.

Data set [5] concerns native GABAARs expressed in δKO mice forebrain membranes. Briefly: AA29504 effect on [^3H]muscimol binding, δKO forebrain membranes. Details: species or system mouse. The settings on record: increasing concentrations of AA29504, 15 min, 22 °C. The method, then:
as §3

The test system of data set [6] is native GABAARs expressed in WT mice forebrain membranes. The data set is described as follows: AA29504 effect on [^3H]GABA binding, WT forebrain membranes. Details: species or system mouse. The settings on record: increasing concentrations of AA29504, 15 min, 22 °C. The method, then:
as §3

Data set [7] relates to native GABAARs expressed in δKO mice forebrain membranes. Briefly: AA29504 effect on [^3H]GABA binding, δKO forebrain membranes. Details: species or system mouse. The following applies: increasing concentrations of AA29504, 15 min, 22 °C. The method, then:
as §3

The test system of data set [8] is GABAARs in WT forebrain membranes. Briefly: [^3H]muscimol association and dissociation, WT forebrain membranes. In kind it is binding, mouse. The method, then:
as §3
(§4) The effect of AA29504 on the association and dissociation of [^3H]muscimol binding was measured essentially as described by Benkherouf et al.. Saturation analysis of [^3H]muscimol was performed essentially as described by Uusi-Oukari and Korpi. Triplicate samples of the membranes were incubated in assay buffer with a concentration series of [^3H]muscimol (1–50 nM) at room temperature (22 °C) for 60 min in the absence and presence of 10 µM AA29504. […] .
(§5) GraphPad Prism software (GraphPad, San Diego, CA, USA) was used for nonlinear least squares curve-fitting and statistical testing of association, dissociation, saturation binding and radioligand displacement data. The association and dissociation curves were used for the estimation of association (Kon) and dissociation (Koff) rate constants. Saturation binding curves were used for the estimation of total number of high-affinity binding sites (Bmax), and equilibrium dissociation constants (KD). […] . Statistical comparisons were made with One-way ANOVA, Two-way ANOVA or Brown-Forsythe and Welch ANOVA followed by the relevant (Tukey’s or Dunnett’s) post hoc tests for multiple comparisons. […] . The study samples were not randomized and analysis was performed in a parallel unblinded mode.

The test system of data set [9] is GABAARs in δKO forebrain membranes. The data set is described as follows: [^3H]muscimol association and dissociation, δKO forebrain membranes. In kind it is binding, mouse. The method, then: as §3, §4, §5
On the set-up of data set [10]: method as in PMID 20060846, PMID 22579928, PMID 20957350. The following applies: 60 min post 2 mg/kg, s.c. in mice; cited from earlier work.
Data set [11] concerns the target recombinant α6β2δ GABAARs expressed in HEK293 cells (Rattus norvegicus, UniProt P18506+P30191+P63138). The data set is described as follows: AA29504 effect on [^3H]muscimol binding, recombinant α6β2δ. The settings on record: HEK293, 4 concentrations of AA29504.
Protocol: (§6) Human embryonic kidney (HEK) 293 cells were maintained at + 37 °C/10% CO2 in Dulbecco’s Modified Eagle’s Medium (DMEM) (Gibco, Gaithersburg, MD, USA), supplemented with 3.7 g/L NaHCO3, 10% Fetal Bovine Serum (FBS) (Gibco, Gaithersburg, MD, USA), 50,000 U/L penicillin and 50 mg/L streptomycin (Sigma-Aldrich, St Louis, MO, USA). The cells were divided and plated on 10 cm culture dishes for binding assays 24 h before transfection. HEK293 cells were transfected with rat cDNAs (α1, α6, β2, β3, γ2S, δ) in pRK5 plasmids [39] under the control of cytomegalovirus (CMV) promoter using calcium phosphate transfection method essentially as described by Lüddens and Korpi [40]. The plasmids were used in 1:1 and 1:1:1 ratios for transfections containing 2 [(α6) + (β3)] or 3 [(α1 or α6) + (β2 or β3) + (γ2S or δ)] different subunits, respectively (5 μg of each plasmid DNA for a 10 cm plate). The cells were incubated at 37 °C/10% CO2 for 24 h post-transfection. Old culture medium was replaced with fresh medium and the incubation resumed for another 24 h. The cells were harvested 48 h post-transfection. […]
(§7) Individually pooled triplicate membrane samples (3 total binding and 3 non‐specific binding) were incubated with shaking for 15 min. The effect of AA29504 on binding was determined in the presence of various concentrations of AA29504. […]
Data set [12] has as its target recombinant α1β2γ2 GABAARs expressed in HEK293 cells (Rattus norvegicus, UniProt P18508+P62813+P63138). The data set is described as follows: AA29504 effect on [^3H]muscimol binding, recombinant α1β2γ2. The following applies: α1β2γ2, HEK293, 4 concentrations of AA29504.
Protocol: as §6, §7
Data set [13] concerns the target recombinant α6β2γ2 GABAARs expressed in HEK293 cells (Rattus norvegicus, UniProt P18508+P30191+P63138). Briefly: AA29504 effect on [^3H]muscimol binding, recombinant α6β2γ2. The settings on record: α6β2γ2, HEK293, 4 concentrations of AA29504.
Protocol: as §6, §7
Details of data set [14]: method as in PMID 31736685. The following applies: in vivo; cited from earlier work.
For data set [15], the system named is native GABAARs expressed in WT forebrain membranes. In kind it is binding, mouse. The following applies: read-out: IC50 of agonist-induced [^3H]EBOB displacement. The method, then:
as §3, §1, §2

For data set [16], the system named is native GABAARs expressed in δKO forebrain membranes. In kind it is binding, mouse. The settings on record: read-out: IC50 of agonist-induced [^3H]EBOB displacement. The method, then: as §3, §1, §2
Data set [17] concerns the target GABAARs in WT mouse forebrain membranes. Briefly: Saturation analysis of [^3H]muscimol binding, WT forebrain membranes. The method, then:
as §3, §4, §5

Data set [18] has as its target GABAARs in δKO mouse forebrain membranes. The data set is described as follows: Saturation analysis of [^3H]muscimol binding, δKO forebrain membranes. The following applies: one-site model. The method, then:
as §3, §4
as §5, with “The study samples were not randomized and analysis was performed in a parallel unblinded mode.” left out

[19] abbreviates: 10 µM AA29504, 2 nM [^3H]muscimol, control binding without AA29504.
Setting [20] is: 2 nM [^3H]muscimol, 22 °C, absence of AA29504.

T3 sequence (P30191 20-453): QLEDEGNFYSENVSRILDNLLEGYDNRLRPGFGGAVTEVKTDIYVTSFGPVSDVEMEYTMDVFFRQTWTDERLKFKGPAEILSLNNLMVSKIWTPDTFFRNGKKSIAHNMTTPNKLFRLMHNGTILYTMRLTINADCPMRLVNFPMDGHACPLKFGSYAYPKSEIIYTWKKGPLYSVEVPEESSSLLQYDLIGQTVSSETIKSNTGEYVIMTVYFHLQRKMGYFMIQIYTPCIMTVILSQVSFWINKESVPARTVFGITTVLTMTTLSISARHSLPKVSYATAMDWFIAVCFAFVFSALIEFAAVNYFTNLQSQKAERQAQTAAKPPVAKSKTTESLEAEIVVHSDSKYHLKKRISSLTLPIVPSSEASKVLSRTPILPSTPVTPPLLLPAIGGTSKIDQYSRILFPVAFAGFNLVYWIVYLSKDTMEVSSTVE
T3 sequence (P63079 26-473): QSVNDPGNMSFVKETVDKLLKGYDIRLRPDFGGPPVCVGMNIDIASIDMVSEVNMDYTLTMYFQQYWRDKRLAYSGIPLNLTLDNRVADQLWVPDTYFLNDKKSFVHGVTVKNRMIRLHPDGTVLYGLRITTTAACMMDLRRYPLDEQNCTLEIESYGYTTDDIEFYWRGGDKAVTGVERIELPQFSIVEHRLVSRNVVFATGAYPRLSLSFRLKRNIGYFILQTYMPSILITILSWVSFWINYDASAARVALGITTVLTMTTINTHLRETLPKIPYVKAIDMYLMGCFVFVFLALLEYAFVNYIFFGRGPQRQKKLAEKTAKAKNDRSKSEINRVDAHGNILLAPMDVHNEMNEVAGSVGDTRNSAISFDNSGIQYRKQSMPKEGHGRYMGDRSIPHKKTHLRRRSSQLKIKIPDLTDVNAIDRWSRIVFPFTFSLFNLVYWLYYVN
T3 sequence (P18508 39-466): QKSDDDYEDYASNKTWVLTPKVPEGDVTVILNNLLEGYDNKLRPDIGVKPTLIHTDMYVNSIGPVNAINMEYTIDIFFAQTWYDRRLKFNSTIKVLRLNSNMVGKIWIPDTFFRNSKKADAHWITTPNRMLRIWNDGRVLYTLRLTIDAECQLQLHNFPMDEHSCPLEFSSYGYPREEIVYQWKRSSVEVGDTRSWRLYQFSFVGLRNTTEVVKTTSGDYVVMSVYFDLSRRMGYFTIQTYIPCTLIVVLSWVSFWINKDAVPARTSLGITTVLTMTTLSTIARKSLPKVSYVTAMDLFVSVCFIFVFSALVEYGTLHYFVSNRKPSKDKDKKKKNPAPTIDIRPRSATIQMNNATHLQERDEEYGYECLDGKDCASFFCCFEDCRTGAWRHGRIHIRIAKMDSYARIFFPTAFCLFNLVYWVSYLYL
T1 sequence (P30191 20-453): as the sequence (P30191 20-453) above
T1 sequence (P63079 26-473): as the sequence (P63079 26-473) above
T2 sequence (P30191 20-453): as the sequence (P30191 20-453) above
T2 sequence (P63079 26-473): as the sequence (P63079 26-473) above
T2 sequence (P18506 17-449 limits assumed): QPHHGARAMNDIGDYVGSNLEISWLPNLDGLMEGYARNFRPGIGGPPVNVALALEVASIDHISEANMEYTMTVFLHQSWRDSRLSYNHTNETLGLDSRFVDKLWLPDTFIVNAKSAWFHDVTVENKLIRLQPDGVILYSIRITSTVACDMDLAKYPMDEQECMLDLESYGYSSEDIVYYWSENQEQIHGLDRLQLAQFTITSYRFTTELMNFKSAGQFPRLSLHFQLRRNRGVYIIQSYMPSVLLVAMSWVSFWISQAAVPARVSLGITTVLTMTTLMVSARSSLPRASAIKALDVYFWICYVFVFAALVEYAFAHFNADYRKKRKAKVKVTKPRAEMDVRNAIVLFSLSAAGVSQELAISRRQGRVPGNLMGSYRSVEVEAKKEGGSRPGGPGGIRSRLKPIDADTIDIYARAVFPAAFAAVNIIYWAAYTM
Sequence of recombinant α6β2δ GABAARs expressed in HEK293 cells (P30191 20-453): as the sequence (P30191 20-453) above
Sequence of recombinant α6β2δ GABAARs expressed in HEK293 cells (P63138 25-474 limits assumed): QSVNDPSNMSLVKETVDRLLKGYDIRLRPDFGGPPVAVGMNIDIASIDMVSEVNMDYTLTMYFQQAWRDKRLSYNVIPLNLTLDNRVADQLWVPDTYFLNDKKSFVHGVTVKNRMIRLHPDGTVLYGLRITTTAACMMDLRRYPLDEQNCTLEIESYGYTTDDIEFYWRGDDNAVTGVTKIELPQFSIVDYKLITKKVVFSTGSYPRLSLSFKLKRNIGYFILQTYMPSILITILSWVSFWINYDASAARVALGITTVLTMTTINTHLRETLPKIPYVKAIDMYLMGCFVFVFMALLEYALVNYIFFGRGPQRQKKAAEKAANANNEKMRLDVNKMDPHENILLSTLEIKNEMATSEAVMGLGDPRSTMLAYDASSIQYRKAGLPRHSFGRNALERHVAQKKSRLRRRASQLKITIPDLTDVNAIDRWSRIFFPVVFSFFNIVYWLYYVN
Sequence of recombinant α6β2δ GABAARs expressed in HEK293 cells (P18506 17-449 limits assumed): as the sequence (P18506 17-449 limits assumed) above
Sequence of recombinant α6β2γ2 GABAARs expressed in HEK293 cells (P30191 20-453): as the sequence (P30191 20-453) above
Sequence of recombinant α6β2γ2 GABAARs expressed in HEK293 cells (P63138 25-474 limits assumed): as the sequence (P63138 25-474 limits assumed) above
Sequence of recombinant α6β2γ2 GABAARs expressed in HEK293 cells (P18508 39-466): as the sequence (P18508 39-466) above
Sequence of recombinant α1β2γ2 GABAARs expressed in HEK293 cells (P62813 28-455): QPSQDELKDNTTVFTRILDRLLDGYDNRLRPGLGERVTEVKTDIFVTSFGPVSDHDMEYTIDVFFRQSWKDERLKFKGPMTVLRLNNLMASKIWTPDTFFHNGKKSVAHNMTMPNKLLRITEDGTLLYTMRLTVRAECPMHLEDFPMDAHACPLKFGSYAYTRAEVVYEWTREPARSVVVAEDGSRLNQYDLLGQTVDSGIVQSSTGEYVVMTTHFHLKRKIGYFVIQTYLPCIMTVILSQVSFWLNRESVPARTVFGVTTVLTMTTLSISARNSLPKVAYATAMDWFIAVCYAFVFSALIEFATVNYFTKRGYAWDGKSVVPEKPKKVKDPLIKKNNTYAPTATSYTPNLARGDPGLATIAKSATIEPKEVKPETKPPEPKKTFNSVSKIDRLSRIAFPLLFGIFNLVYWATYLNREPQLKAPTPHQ
Sequence of recombinant α1β2γ2 GABAARs expressed in HEK293 cells (P63138 25-474): as the sequence (P63138 25-474 limits assumed) above
Sequence of recombinant α1β2γ2 GABAARs expressed in HEK293 cells (P18508 39-466): as the sequence (P18508 39-466) above

With `CCOC(=O)Nc1ccc(NCc2c(C)cc(C)cc2C)cc1N` [AA29504, [2-amino-4-(2,4,6-trimethylbenzylamino)-phenyl]-carbamic acid ethyl ester], the “concentration at which GABA-independent radioligand displacement was evident” value is reported as at least 100 nM in data set [1] (α6β3, 1 nM [^3H]EBOB); at least 100 nM in data set [2] (1 nM [^3H]EBOB); at least 300 nM in data set [3] (α6β3γ2, 1 nM [^3H]EBOB). For the same molecule, the IC50 was 400 ± 20 nM in [1] (α6β3, HEK293, 1 nM [^3H]EBOB, no GABA); 1100 ± 200 nM in data set [2] (HEK293, 1 nM [^3H]EBOB, no GABA); 11100 ± 1400 nM in data set [3] (α6β3γ2, HEK293, 1 nM [^3H]EBOB, no GABA). The “effect on 2 nM [^3H]muscimol binding” value is recorded as “concentration-dependent stimulation” in data set [4]; “concentration-dependent stimulation” in [5]; “no significant effect” in data set [11]; “stimulated” in [12]; “stimulated” in data set [13]. Besides, the “effect on 5 nM [^3H]GABA binding” value in data set [6] and in data set [7] was “concentration-dependent stimulation” throughout. In addition, the “maximal increased specific [^3H]muscimol binding” value in [8] (setting [19]) was 166 ± 5 % of control; in data set [9] (setting [19]) it was 240 ± 23 % of control binding. Also, the brain concentration in [10] is 1000 nM.

Turning to `O=C(Nc1c(-c2cccs2)nc2ccccn12)c1ccc(Cl)cc1` [DS2, 4-chloro-N-[2-(2-thienyl)imidazo[1,2-a]pyridin-3-yl]benzamide], the brain bioavailability entry in data set [14] is on record as “limited brain bioavailability”.

Turning to `Oc1noc2c1CCNC2` [THIP, 4,5,6,7-tetrahydroisoxazolo[5,4-c]pyridin-3-ol], the values for the IC50 in [15] and in data set [16] were 200000 ± 110000 nM and 220000 ± 50000 nM, respectively.

In the case of `[3H]C([3H])(N)c1cc(=O)[nH]o1` [[^3H]muscimol], the “association rate constant Kon” value in data set [8] (setting [20]) is given as 2.2 ± 0.3 × 10^8 M^−1 × min^−1; in data set [9] (setting [20]) it was 5.9 ± 0.6 × 10^8 M^−1 × min^−1. The entries for the “dissociation rate constant Koff” value in data set [8] (setting [20]) and in data set [9] (setting [20]) were 0.00633 ± 0.00033 s⁻¹ and 0.011 ± 0.0005 s⁻¹, respectively. In addition, the Kd is 23 ± 4 nM in data set [17] (with AA29504 (10 µM), 22 °C, one-site model, read-out: KD); 4.1 ± 3.6 nM in data set [17] (without AA29504, 22 °C, read-out: KD, site (1) of two-site model); 40 nM in data set [17] (without AA29504, 22 °C, read-out: KD, site (2) of two-site model (converted)); 30 ± 3 nM in [18] (with AA29504 (10 µM), 22 °C); 53 ± 6 nM in [18] (without AA29504, 22 °C).
